Data taken from patent US7786054B2, “Biocide for well stimulation and treatment fluids” (Kemira Chemicals, Inc., priority 2006, dated 2010).
“Also recorded” adds a separate entry of the source.

How the values were obtained:
[1] = test system: sulfate reducing bacteria (SRB); experiment: Biocidal effectiveness on sulfate reducing bacteria in spiked frac pond water, serial dilution counts over 180 days with challenges; assay type: cell-based
Method: (§1) In this example, the biocidal effectiveness on sulfate reducing bacteria (SRB) and acid producing bacteria (AB) for biocide formulations containing CB Thione and WB Thione to Glut and THPS was examined.
(§2) A one gallon sample was separated from a five gallon sample of frac pond water for these studies. The frac pond water sample included SRB and AB. Ten mL of a 10^9 cfu/mL inoculum of SRB grown in anaerobic API broth containing an O2 scavenger and 10 mL of a 10^9 cfu/mL inoculum of AB grown in anaerobic phenol red (anPR) broth containing an O2 scavenger were added to the one gallon frac pond water sample, mixed well and allowed to incubate for a period of time sufficient to achieve a desired number of SRB and AB. All broth media for inoculum and serial dilution counts in this study was made at 4% salinity to match the salinity of the original frac pond water measured by total dissolved solids testing. To increase nutrient value and to emulate on-site friction reducing additives, a 30 weight % acrylic acid, 70% acrylamide copolymer was added to the inoculated gallon of frac pond water sample at 300 ppm and then referred to as the spiked frac pond water sample. The spiked sample was then divided into 99.0 g aliquots for testing the effect of various biocides at various concentrations on the SRB and AB over a 180 day contact time. One spiked aliquot would serve as the control sample to which no biocide would be added. Challenges were made to all aliquots using 0.5 mL of 10^8 SRB and 0.5 mL, of 10^8 AB at 14, 28, and 129 days contact time.
(§3) The biocides included a 20% water based Thione (WB Thione), a 24% caustic based Thione (CB Thione), a 25% Glut, and a 35% THPS. Stock biocide solutions of various concentrations were made from these biocides as described below.
(§4) The WB Thione stock solutions were prepared by adding 3.0 g of the biocide to 17.0 g of sterile distilled water to form an intermediate solution, followed by combining each intermediate solution with water in the accounts shown in Table 1 below to make the descending concentrations as shown in Table 1.
(§5) The CB Thione stock solutions were prepared by adding 3.0 g of the biocide to 17.0 g of sterile distilled water to form an intermediate solution, followed by combining each intermediate solution with water in the amounts shown in Table 2 below to make the descending concentrations as shown in Table 2.
(§6) The Glut stock solutions were prepared by adding 1.0 g biocide to 19.0 g of sterile distilled water to form an intermediate solution, followed by combining each intermediate solution with water in the amounts shown in Table 3 below to make the descending concentrations as shown in Table 3.
(§7) The THPS stock solutions were prepared by adding 1.0 g of the biocide to 19.0 g of sterile distilled water to form an intermediate solution, followed by combining each intermediate solution with water in the amounts shown in Table 4 below to make the descending concentrations as shown in Table 4.
(§8) Next, 1 g of each biocide stock solution was added to the appropriately labeled 99.0 g aliquot. Also, 1.0 g of sterile water was added to the control aliquot. The concentrations of the biocides present in each aliquot are provided below in Table 5.
(§9) The aliquots were then incubated at room temperature in the dark for the entire study, i.e., 6 months. […] Using sterile syringes, this testing was performed by serial diluting the aliquots into sealed 9.0 mL anaerobic API broth and anaerobic PR broth bottles, both media containing an O2 scavenger, in the appropriate labeled set of SRB bottles (6 for each aliquot) mid AB bottles (6 for each aliquot) until a color change occurred, indicating the log quantity of organisms present in each aliquot.

[2] = test system: acid producing bacteria (AB); experiment: Biocidal effectiveness on acid producing bacteria in spiked frac pond water, serial dilution counts over 180 days with challenges; assay type: cell-based
Method: as §1, §2, §3, §4, §5, §6, §7, §8, §9

[3] = 500 ppm as is (Glut, THPS), 7 Days
[4] = 500 ppm as is (Glut, THPS), 14 Days
[5] = 500 ppm as is (Glut, THPS), 21 Days
[6] = 500 ppm as is (Glut, THPS), 28 Days
[7] = 500 ppm as is (Glut, THPS), 35 Days
[8] = 500 ppm as is (Glut, THPS), 42 Days
[9] = 500 ppm as is (Glut, THPS), 58 Days
[10] = 500 ppm as is (Glut, THPS), 90 Days
[11] = up to 180 days contact time, challenges at 14, 28 and 129 days

O=S(=O)([O-])[O-].OC[P+](CO)(CO)CO.OC[P+](CO)(CO)CO [THPS, tetra-kis-hydroxymethyly-phosphonium sulfate]
Log 10 Anaerobic Sulfate Reducing Bacteria/mL ([1]; 60 ppm as is (DA), 7 Days): ≧6 Log 10 Bacteria/mL
Log 10 Anaerobic Sulfate Reducing Bacteria/mL ([1]; 60 ppm as is (DA), 14 Days): ≧6 Log 10 Bacteria/mL
Log 10 Anaerobic Sulfate Reducing Bacteria/mL ([1]; 60 ppm as is (DA), 21 Days): ≧5 Log 10 Bacteria/mL
Log 10 Anaerobic Sulfate Reducing Bacteria/mL ([1]; 60 ppm as is (DA), 28 Days): ≧6 Log 10 Bacteria/mL
Log 10 Anaerobic Sulfate Reducing Bacteria/mL ([1]; 60 ppm as is (DA), 35 Days): ≧6 Log 10 Bacteria/mL
Log 10 Anaerobic Sulfate Reducing Bacteria/mL ([1]; 60 ppm as is (DA), 42 Days): ≧6 Log 10 Bacteria/mL
Log 10 Anaerobic Sulfate Reducing Bacteria/mL ([1]; 60 ppm as is (DA), 58 Days): ≧6 Log 10 Bacteria/mL
Log 10 Anaerobic Sulfate Reducing Bacteria/mL ([1]; 60 ppm as is (DA), 90 Days): ≧6 Log 10 Bacteria/mL
Log 10 Anaerobic Sulfate Reducing Bacteria/mL ([1]; 100 ppm as is, 7 Days): 5 Log 10 Bacteria/mL
Log 10 Anaerobic Sulfate Reducing Bacteria/mL ([1]; 100 ppm as is, 14 Days): 5 Log 10 Bacteria/mL
Log 10 Anaerobic Sulfate Reducing Bacteria/mL ([1]; 100 ppm as is, 21 Days): ≧5 Log 10 Bacteria/mL
Log 10 Anaerobic Sulfate Reducing Bacteria/mL ([1]; 100 ppm as is, 28 Days): ≧6 Log 10 Bacteria/mL
Log 10 Anaerobic Sulfate Reducing Bacteria/mL ([1]; 100 ppm as is, 35 Days): ≧6 Log 10 Bacteria/mL
Log 10 Anaerobic Sulfate Reducing Bacteria/mL ([1]; 100 ppm as is, 42 Days): ≧6 Log 10 Bacteria/mL
Log 10 Anaerobic Sulfate Reducing Bacteria/mL ([1]; 100 ppm as is, 58 Days): ≧6 Log 10 Bacteria/mL
Log 10 Anaerobic Sulfate Reducing Bacteria/mL ([1]; 100 ppm as is, 90 Days): ≧6 Log 10 Bacteria/mL
Log 10 Anaerobic Sulfate Reducing Bacteria/mL ([1]; 200 ppm as is, 7 Days): 0 Log 10 Bacteria/mL
Log 10 Anaerobic Sulfate Reducing Bacteria/mL ([1]; 200 ppm as is, 14 Days): 0 Log 10 Bacteria/mL
Log 10 Anaerobic Sulfate Reducing Bacteria/mL ([1]; 200 ppm as is, 21 Days): ≧6 Log 10 Bacteria/mL
Log 10 Anaerobic Sulfate Reducing Bacteria/mL ([1]; 200 ppm as is, 28 Days): ≧6 Log 10 Bacteria/mL
Log 10 Anaerobic Sulfate Reducing Bacteria/mL ([1]; 200 ppm as is, 35 Days): ≧6 Log 10 Bacteria/mL
Log 10 Anaerobic Sulfate Reducing Bacteria/mL ([1]; 200 ppm as is, 42 Days): ≧6 Log 10 Bacteria/mL
Log 10 Anaerobic Sulfate Reducing Bacteria/mL ([1]; 200 ppm as is, 58 Days): ≧6 Log 10 Bacteria/mL
Log 10 Anaerobic Sulfate Reducing Bacteria/mL ([1]; 200 ppm as is, 90 Days): ≧6 Log 10 Bacteria/mL
Log 10 Anaerobic Sulfate Reducing Bacteria/mL [1, 3]: 0 Log 10 Bacteria/mL
Log 10 Anaerobic Sulfate Reducing Bacteria/mL [1, 4]: 0 Log 10 Bacteria/mL
Log 10 Anaerobic Sulfate Reducing Bacteria/mL [1, 5]: 4 Log 10 Bacteria/mL
Log 10 Anaerobic Sulfate Reducing Bacteria/mL [1, 6]: 3 Log 10 Bacteria/mL
Log 10 Anaerobic Sulfate Reducing Bacteria/mL [1, 7]: 3 Log 10 Bacteria/mL
Log 10 Anaerobic Sulfate Reducing Bacteria/mL [1, 8]: ≧6 Log 10 Bacteria/mL
Log 10 Anaerobic Sulfate Reducing Bacteria/mL [1, 9]: ≧6 Log 10 Bacteria/mL
Log 10 Anaerobic Sulfate Reducing Bacteria/mL [1, 10]: ≧6 Log 10 Bacteria/mL
control of SRB in frac pond water (summary in words) [1, 11]: lost all control of SRB and AB from 1 to 21 days contact time; also recorded: failed completely after challenging once at 14 days contact time at all concentrations
Log 10 Anaerobic Acid Producing Bacteria/mL ([2]; 50 ppm as is, 7 Days): 5 Log 10 Bacteria/mL
Log 10 Anaerobic Acid Producing Bacteria/mL ([2]; 50 ppm as is, 14 Days): ≧6 Log 10 Bacteria/mL
Log 10 Anaerobic Acid Producing Bacteria/mL ([2]; 50 ppm as is, 21 Days): ≧6 Log 10 Bacteria/mL
Log 10 Anaerobic Acid Producing Bacteria/mL ([2]; 50 ppm as is, 28 Days): ≧6 Log 10 Bacteria/mL
Log 10 Anaerobic Acid Producing Bacteria/mL ([2]; 50 ppm as is, 35 Days): ≧6 Log 10 Bacteria/mL
Log 10 Anaerobic Acid Producing Bacteria/mL ([2]; 50 ppm as is, 42 Days): ≧6 Log 10 Bacteria/mL
Log 10 Anaerobic Acid Producing Bacteria/mL ([2]; 50 ppm as is, 58 Days): ≧6 Log 10 Bacteria/mL
Log 10 Anaerobic Acid Producing Bacteria/mL ([2]; 50 ppm as is, 90 Days): ≧6 Log 10 Bacteria/mL
Log 10 Anaerobic Acid Producing Bacteria/mL ([2]; 100 ppm as is, 7 Days): 5 Log 10 Bacteria/mL
Log 10 Anaerobic Acid Producing Bacteria/mL ([2]; 100 ppm as is, 14 Days): 5 Log 10 Bacteria/mL
Log 10 Anaerobic Acid Producing Bacteria/mL ([2]; 100 ppm as is, 21 Days): ≧6 Log 10 Bacteria/mL
Log 10 Anaerobic Acid Producing Bacteria/mL ([2]; 100 ppm as is, 28 Days): ≧6 Log 10 Bacteria/mL
Log 10 Anaerobic Acid Producing Bacteria/mL ([2]; 100 ppm as is, 35 Days): ≧6 Log 10 Bacteria/mL
Log 10 Anaerobic Acid Producing Bacteria/mL ([2]; 100 ppm as is, 42 Days): ≧6 Log 10 Bacteria/mL
Log 10 Anaerobic Acid Producing Bacteria/mL ([2]; 100 ppm as is, 58 Days): ≧6 Log 10 Bacteria/mL
Log 10 Anaerobic Acid Producing Bacteria/mL ([2]; 100 ppm as is, 90 Days): ≧5 Log 10 Bacteria/mL
Log 10 Anaerobic Acid Producing Bacteria/mL ([2]; 200 ppm as is, 7 Days): 1 Log 10 Bacteria/mL
Log 10 Anaerobic Acid Producing Bacteria/mL ([2]; 200 ppm as is, 14 Days): 0 Log 10 Bacteria/mL
Log 10 Anaerobic Acid Producing Bacteria/mL ([2]; 200 ppm as is, 21 Days): ≧6 Log 10 Bacteria/mL
Log 10 Anaerobic Acid Producing Bacteria/mL ([2]; 200 ppm as is, 28 Days): ≧6 Log 10 Bacteria/mL
Log 10 Anaerobic Acid Producing Bacteria/mL ([2]; 200 ppm as is, 35 Days): ≧6 Log 10 Bacteria/mL
Log 10 Anaerobic Acid Producing Bacteria/mL ([2]; 200 ppm as is, 42 Days): ≧6 Log 10 Bacteria/mL
Log 10 Anaerobic Acid Producing Bacteria/mL ([2]; 200 ppm as is, 58 Days): ≧6 Log 10 Bacteria/mL
Log 10 Anaerobic Acid Producing Bacteria/mL ([2]; 200 ppm as is, 90 Days): ≧6 Log 10 Bacteria/mL
Log 10 Anaerobic Acid Producing Bacteria/mL [2, 3]: 0 Log 10 Bacteria/mL
Log 10 Anaerobic Acid Producing Bacteria/mL [2, 4]: 0 Log 10 Bacteria/mL
Log 10 Anaerobic Acid Producing Bacteria/mL [2, 5]: 4 Log 10 Bacteria/mL
Log 10 Anaerobic Acid Producing Bacteria/mL [2, 6]: 3 Log 10 Bacteria/mL
Log 10 Anaerobic Acid Producing Bacteria/mL [2, 7]: 4 Log 10 Bacteria/mL
Log 10 Anaerobic Acid Producing Bacteria/mL [2, 8]: 3 Log 10 Bacteria/mL
Log 10 Anaerobic Acid Producing Bacteria/mL [2, 9]: ≧6 Log 10 Bacteria/mL
Log 10 Anaerobic Acid Producing Bacteria/mL [2, 10]: ≧6 Log 10 Bacteria/mL
control of AB in frac pond water (summary in words) [2, 11]: lost all control of SRB and AB from 1 to 21 days contact time; also recorded: failed after challenging once at 14 days contact time
